Results published in ChEMBL document CHEMBL5212743, “Selectivity Literature for EUbOPEN Chemogenomics Library wave 3” (2023).
One block for each molecule: values may come before it.

Assays:
Insulin receptor = Insulin receptor (Homo sapiens, UniProt P06213)
[1] = biological target: T1, Serine/threonine-protein kinase Sgk1 (Homo sapiens) (UniProt O00141); conditions: at 1 µM
T1 sequence (whole entry): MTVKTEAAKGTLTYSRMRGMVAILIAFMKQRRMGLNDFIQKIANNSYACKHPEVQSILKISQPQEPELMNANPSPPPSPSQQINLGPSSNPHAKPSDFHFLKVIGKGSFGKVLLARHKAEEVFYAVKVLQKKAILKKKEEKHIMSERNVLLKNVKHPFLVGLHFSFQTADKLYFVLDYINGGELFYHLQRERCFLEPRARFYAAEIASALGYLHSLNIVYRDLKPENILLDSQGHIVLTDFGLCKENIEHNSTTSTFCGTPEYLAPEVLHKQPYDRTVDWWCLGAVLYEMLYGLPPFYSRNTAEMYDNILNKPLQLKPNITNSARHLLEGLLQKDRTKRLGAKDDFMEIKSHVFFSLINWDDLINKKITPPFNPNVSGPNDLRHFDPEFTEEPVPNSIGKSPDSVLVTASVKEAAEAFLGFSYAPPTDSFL

Ephrin type-B receptor 2 = Ephrin type-B receptor 2 (Homo sapiens, UniProt P29323)
[2] = biological target: T2, Mitogen-activated protein kinase 15 (Homo sapiens) (UniProt Q8TD08); conditions: at 10 µM
T2 sequence (whole entry): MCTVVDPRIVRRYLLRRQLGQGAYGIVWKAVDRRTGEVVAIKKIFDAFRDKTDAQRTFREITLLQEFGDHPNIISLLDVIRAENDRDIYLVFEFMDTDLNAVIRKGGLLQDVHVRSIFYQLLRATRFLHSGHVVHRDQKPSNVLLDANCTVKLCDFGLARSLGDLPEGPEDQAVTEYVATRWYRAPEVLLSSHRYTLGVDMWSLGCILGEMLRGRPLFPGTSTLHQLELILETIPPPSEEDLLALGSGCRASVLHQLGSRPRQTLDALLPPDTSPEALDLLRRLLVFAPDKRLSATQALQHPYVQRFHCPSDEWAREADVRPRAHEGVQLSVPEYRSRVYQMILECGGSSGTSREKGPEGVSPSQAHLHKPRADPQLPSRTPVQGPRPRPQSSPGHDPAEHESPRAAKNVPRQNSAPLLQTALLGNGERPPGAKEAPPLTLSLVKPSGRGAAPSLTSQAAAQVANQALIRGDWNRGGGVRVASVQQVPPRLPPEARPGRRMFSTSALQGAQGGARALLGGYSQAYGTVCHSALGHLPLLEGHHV

[3] = biological target: Calcium/calmodulin-dependent protein kinase type IV (Homo sapiens) (UniProt Q16566); conditions: at 1 µM
[4] = biological target: 5'-AMP-activated protein kinase catalytic subunit alpha-1 (Homo sapiens, UniProt Q13131); assay: Selectivity interaction (Upstate Kinase Profiler service (Millipore)) EUB0000056c PRKAA1
[5] = biological target: Calcium/calmodulin-dependent protein kinase type II subunit beta (Homo sapiens, UniProt Q13554); assay: Selectivity interaction (Upstate Kinase Profiler service (Millipore)) EUB0000056c CAMK2B
[6] = biological target: T3, Chromatin remodeling regulator CECR2 (Homo sapiens, UniProt Q9BXF3); assay: (§1) Selectivity interaction (Bromodomain panel (DSF assay)) EUB0000201c CECR2
Target sequence in this assay (Q9BXF3 whole entry, looked up): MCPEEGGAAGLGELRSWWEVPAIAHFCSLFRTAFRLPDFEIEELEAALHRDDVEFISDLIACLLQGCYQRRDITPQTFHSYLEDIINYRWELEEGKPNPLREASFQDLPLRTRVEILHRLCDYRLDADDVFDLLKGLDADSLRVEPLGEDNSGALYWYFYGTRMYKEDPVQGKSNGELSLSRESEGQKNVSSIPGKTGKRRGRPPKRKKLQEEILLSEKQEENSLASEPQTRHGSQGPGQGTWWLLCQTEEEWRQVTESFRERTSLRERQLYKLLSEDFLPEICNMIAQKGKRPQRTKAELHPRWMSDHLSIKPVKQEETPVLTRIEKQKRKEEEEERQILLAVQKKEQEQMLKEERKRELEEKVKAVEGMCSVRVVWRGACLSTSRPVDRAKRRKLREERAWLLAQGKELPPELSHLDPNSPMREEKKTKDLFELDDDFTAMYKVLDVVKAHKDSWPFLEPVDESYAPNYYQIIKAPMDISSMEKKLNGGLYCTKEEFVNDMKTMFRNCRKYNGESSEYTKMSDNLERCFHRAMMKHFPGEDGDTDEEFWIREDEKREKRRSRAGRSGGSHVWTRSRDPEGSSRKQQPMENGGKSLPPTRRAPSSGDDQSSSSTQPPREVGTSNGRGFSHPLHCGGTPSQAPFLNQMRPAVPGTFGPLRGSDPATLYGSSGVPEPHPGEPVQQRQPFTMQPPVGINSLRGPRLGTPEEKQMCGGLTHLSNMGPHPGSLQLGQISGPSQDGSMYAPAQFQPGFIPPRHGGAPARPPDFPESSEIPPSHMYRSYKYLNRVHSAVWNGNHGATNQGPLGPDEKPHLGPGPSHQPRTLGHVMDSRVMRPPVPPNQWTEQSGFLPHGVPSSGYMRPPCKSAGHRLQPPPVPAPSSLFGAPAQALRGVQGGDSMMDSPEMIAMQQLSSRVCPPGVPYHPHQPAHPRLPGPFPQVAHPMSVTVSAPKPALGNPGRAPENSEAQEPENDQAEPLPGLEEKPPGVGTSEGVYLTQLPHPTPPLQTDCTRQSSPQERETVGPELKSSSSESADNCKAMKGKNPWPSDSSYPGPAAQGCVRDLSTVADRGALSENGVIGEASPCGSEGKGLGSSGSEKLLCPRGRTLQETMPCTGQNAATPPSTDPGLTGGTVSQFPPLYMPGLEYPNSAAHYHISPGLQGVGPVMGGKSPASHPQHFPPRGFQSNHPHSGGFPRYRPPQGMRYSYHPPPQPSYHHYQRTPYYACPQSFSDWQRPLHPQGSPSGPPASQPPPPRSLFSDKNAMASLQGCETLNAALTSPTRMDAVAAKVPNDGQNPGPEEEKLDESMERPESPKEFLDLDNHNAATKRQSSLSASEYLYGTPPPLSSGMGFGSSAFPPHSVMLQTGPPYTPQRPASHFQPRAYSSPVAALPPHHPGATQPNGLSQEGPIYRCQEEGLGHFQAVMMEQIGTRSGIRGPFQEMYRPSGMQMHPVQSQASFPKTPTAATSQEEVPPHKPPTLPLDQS

[7] = biological target: Transcription initiation factor TFIID subunit 1 (Homo sapiens, UniProt P21675); assay: Selectivity interaction (Bromodomain panel (DSF assay)) EUB0000201c TAF1
[8] = biological target: T3, Chromatin remodeling regulator CECR2; assay: as §1; remark: listed apart in the source
Target sequence in this assay (Q9BXF3 whole entry, looked up): as above

[9] = biological target: SWI/SNF-related matrix-associated actin-dependent regulator of chromatin subfamily A member 4 (Homo sapiens) (UniProt P51532); assay: Selectivity interaction (Bromodomain panel (DSF assay)) EUB0000201c SMARCA4
[10] = biological target: T3, Chromatin remodeling regulator CECR2; assay: Selectivity interaction (Cellular FRAP assay) EUB0000201c CECR2
Target sequence in this assay (Q9BXF3 whole entry): as the sequence (Q9BXF3 whole entry, looked up) above

[11] = biological target: Nucleosome-remodeling factor subunit BPTF (Homo sapiens, UniProt Q12830); assay: Selectivity interaction (Bromodomain panel (DSF assay)) EUB0000201c BPTF
[12] = biological target: Bromodomain-containing protein 4 (Homo sapiens, UniProt O60885); assay: Selectivity interaction (Bromodomain panel (DSF assay)) EUB0000201c BRD4
[13] = biological target: T4, Bromodomain-containing protein 7 (Homo sapiens) (UniProt Q9NPI1); assay: Selectivity interaction (Bromodomain panel (DSF assay)) EUB0000201c BRD7
T4 sequence (whole entry): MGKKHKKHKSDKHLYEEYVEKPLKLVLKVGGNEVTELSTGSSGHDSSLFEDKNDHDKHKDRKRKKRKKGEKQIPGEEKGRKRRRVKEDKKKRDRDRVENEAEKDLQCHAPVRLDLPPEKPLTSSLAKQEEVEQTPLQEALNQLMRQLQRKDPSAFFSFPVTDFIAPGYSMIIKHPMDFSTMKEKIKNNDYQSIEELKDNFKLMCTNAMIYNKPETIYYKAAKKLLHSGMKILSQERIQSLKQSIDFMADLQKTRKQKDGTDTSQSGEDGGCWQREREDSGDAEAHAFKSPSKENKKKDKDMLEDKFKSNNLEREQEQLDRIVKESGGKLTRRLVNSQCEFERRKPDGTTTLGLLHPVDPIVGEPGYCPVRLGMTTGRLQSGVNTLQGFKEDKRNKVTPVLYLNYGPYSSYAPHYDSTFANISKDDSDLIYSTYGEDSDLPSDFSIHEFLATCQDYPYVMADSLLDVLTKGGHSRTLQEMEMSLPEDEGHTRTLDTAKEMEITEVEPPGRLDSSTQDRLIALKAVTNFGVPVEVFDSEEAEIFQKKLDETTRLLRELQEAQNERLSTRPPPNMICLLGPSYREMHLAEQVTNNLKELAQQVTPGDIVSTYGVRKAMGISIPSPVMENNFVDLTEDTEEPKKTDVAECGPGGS

[14] = biological target: Phosphatidylinositol 4,5-bisphosphate 3-kinase catalytic subunit alpha isoform (Homo sapiens, UniProt P42336); assay: Selectivity interaction (KinomeScan (DiscoverX)) EUB0000351a PIK3CA; conditions: at 1 µM
[15] = biological target: 5'-AMP-activated protein kinase catalytic subunit alpha-2 (Homo sapiens) (UniProt P54646); assay: Selectivity interaction (KinomeScan (DiscoverX)) EUB0000351a PRKAA2; conditions: at 1 µM
D(3) dopamine receptor [16] = biological target: T5, D(3) dopamine receptor (Homo sapiens, UniProt P35462); assay: Selectivity interaction (GPCR panel (PDSP screen)) EUB0000351a DRD3; conditions: at 10 µM
[17] = biological target: T6, Serine/threonine-protein kinase TAO3 (Homo sapiens) (UniProt Q9H2K8); assay: Selectivity interaction (KinomeScan (DiscoverX)) EUB0000351a TAOK3; conditions: at 1 µM
T6 sequence (whole entry): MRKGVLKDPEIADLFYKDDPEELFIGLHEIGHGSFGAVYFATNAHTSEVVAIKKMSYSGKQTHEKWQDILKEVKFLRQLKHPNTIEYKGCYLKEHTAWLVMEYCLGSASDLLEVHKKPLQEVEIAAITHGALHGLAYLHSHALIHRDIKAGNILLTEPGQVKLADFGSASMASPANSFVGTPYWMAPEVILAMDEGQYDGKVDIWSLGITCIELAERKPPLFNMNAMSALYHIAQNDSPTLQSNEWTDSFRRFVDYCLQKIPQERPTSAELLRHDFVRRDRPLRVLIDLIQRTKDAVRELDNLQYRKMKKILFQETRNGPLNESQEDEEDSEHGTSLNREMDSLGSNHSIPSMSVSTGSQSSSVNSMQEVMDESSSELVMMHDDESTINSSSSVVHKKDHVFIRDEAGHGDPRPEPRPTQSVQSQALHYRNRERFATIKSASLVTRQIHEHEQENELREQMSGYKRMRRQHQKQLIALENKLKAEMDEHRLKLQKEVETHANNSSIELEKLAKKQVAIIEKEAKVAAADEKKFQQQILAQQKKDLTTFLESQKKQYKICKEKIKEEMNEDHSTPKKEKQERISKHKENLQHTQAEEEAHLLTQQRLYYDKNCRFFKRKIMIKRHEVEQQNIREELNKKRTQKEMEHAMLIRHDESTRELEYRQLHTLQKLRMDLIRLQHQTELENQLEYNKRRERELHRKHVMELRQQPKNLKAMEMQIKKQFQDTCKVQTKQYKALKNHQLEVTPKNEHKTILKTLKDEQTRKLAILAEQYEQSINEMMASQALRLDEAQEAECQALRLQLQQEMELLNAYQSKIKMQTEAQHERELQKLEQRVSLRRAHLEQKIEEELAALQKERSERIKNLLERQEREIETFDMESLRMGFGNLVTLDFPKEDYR

[18] = biological target: cGMP-inhibited 3',5'-cyclic phosphodiesterase 3A (Homo sapiens, UniProt Q14432); assay: Selectivity interaction (CEREP ligand profiling ) EUB0000351a PDE3A
Acetylcholinesterase = Acetylcholinesterase (Homo sapiens, UniProt P22303); assay: Selectivity interaction (NIBR principial panel (12 GPCRs, 3 nuclear receptors, 3 transporters, and 7 other enzymes)) EUB0000254b ACHE
D(3) dopamine receptor [19] = biological target: T5, D(3) dopamine receptor; assay: Selectivity interaction (NIBR principial panel (12 GPCRs, 3 nuclear receptors, 3 transporters, and 7 other enzymes)) EUB0000254b DRD3
[20] = biological target: Prostaglandin G/H synthase 2 (Homo sapiens, UniProt P35354); assay: Selectivity interaction (NIBR principial panel (12 GPCRs, 3 nuclear receptors, 3 transporters, and 7 other enzymes)) EUB0000254b PTGS2
[21] = test system: T7, Receptor-type tyrosine-protein kinase FLT3 (Homo sapiens), P36888 [D835Y]; assay: Selectivity interaction (KinomeScan (DiscoverX)) EUB0000747a FLT3; conditions: at 1 µM
T7 sequence (whole entry): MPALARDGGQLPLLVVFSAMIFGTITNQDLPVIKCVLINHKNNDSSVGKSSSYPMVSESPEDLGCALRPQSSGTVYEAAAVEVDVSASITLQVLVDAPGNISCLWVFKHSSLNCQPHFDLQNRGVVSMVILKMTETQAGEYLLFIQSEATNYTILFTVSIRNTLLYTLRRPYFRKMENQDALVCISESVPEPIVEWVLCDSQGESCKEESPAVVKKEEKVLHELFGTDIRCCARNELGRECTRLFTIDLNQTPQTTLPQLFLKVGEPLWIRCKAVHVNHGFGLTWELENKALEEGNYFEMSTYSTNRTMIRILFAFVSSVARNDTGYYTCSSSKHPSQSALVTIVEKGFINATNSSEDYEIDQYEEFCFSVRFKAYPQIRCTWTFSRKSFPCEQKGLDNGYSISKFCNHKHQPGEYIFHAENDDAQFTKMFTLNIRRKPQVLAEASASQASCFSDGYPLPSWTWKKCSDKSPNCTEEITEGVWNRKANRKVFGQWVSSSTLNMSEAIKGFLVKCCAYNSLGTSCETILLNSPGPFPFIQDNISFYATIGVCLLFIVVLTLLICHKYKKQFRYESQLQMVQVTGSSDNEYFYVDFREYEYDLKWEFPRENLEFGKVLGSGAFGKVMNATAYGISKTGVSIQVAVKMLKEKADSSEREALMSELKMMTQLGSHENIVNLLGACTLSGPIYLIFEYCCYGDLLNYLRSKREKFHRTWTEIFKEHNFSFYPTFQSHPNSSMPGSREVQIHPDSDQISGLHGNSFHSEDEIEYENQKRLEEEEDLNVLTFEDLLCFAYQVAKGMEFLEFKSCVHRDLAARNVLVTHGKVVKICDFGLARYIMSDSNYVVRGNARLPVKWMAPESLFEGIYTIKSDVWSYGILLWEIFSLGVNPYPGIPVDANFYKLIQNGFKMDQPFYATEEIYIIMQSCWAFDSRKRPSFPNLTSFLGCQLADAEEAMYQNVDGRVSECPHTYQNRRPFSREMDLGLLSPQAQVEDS

[22] = biological target: 5-hydroxytryptamine receptor 7 (Homo sapiens, UniProt P34969); assay: Selectivity interaction (GPCR panel (PDSP screen)) EUB0000747a HTR7
[23] = biological target: Microtubule-associated serine/threonine-protein kinase 1 (Homo sapiens) (UniProt Q9Y2H9); assay: Selectivity interaction (KinomeScan (DiscoverX)) EUB0000747a MAST1; conditions: at 1 µM
[24] = biological target: Death-associated protein kinase 2 (Homo sapiens) (UniProt Q9UIK4); assay: Selectivity interaction (KinomeScan (DiscoverX)) EUB0000747a DAPK2; conditions: at 1 µM
[25] = biological target: Tyrosine-protein kinase BAZ1B (Homo sapiens) (UniProt Q9UIG0); assay: Selectivity interaction (Bromodomain panel (DSF assay)) EUB0000164c BAZ1B
Histamine H1 receptor = Histamine H1 receptor (Homo sapiens, UniProt P35367); assay: Selectivity interaction (Receptor panel (Novartis) ) EUB0000164c HRH1
[26] = biological target: Muscarinic acetylcholine receptor M1 (Homo sapiens, UniProt P11229); assay: Selectivity interaction (Receptor panel (Novartis) ) EUB0000164c CHRM1
Sequence of Muscarinic acetylcholine receptor M1 (P11229 whole entry): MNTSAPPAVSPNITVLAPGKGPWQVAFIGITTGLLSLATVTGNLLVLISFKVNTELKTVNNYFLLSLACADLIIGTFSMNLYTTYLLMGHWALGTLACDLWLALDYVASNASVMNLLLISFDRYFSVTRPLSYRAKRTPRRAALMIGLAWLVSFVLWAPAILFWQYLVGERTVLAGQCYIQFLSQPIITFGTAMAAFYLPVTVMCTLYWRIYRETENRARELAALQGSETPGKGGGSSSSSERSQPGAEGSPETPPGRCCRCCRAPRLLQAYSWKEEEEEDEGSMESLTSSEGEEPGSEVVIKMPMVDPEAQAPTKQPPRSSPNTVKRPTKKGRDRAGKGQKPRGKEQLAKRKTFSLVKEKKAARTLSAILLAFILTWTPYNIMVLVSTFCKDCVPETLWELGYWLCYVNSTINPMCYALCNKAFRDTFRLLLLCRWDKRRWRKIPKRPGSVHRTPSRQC

T5 sequence (P35462 whole entry): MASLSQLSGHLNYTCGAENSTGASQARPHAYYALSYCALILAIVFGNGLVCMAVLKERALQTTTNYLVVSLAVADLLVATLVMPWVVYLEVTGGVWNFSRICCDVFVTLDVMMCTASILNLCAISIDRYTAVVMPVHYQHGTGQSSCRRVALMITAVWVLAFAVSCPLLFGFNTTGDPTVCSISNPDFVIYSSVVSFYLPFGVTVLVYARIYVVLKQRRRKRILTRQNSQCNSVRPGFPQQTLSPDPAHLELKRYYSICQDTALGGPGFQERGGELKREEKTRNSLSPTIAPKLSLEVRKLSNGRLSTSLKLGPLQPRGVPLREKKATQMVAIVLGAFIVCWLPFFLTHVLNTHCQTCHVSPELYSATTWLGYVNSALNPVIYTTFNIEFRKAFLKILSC
Sequence of Phosphatidylinositol 4,5-bisphosphate 3-kinase catalytic subunit alpha isoform (P42336 whole entry, canonical isoform): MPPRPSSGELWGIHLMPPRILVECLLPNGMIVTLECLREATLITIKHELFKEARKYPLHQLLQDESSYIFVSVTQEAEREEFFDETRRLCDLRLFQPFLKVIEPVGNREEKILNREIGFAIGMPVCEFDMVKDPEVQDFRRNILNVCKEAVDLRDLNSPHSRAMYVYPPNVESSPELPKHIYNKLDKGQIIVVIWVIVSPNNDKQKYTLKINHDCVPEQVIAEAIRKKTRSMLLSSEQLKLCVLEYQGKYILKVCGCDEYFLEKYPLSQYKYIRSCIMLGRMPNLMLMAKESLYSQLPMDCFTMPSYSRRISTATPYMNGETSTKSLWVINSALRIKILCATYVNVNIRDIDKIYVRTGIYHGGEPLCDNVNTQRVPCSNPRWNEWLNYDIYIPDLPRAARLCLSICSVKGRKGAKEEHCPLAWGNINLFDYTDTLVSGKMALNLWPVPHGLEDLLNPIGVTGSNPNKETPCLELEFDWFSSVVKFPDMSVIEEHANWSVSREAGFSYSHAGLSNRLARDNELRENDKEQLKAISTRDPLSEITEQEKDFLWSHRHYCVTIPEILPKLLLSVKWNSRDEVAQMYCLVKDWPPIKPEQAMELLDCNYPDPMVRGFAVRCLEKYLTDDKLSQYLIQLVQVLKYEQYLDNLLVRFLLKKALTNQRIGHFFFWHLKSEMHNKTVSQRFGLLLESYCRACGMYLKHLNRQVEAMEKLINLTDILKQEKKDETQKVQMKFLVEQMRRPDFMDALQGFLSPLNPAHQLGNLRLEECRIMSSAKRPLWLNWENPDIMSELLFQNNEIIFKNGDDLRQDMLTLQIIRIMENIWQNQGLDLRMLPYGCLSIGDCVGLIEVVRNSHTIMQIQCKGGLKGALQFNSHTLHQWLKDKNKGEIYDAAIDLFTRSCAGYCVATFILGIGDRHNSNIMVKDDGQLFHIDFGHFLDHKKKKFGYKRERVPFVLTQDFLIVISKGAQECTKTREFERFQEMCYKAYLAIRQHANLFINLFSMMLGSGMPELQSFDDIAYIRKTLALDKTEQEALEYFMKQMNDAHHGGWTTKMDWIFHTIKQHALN
Sequence of Calcium/calmodulin-dependent protein kinase type IV (Homo sapiens) (Q16566 whole entry): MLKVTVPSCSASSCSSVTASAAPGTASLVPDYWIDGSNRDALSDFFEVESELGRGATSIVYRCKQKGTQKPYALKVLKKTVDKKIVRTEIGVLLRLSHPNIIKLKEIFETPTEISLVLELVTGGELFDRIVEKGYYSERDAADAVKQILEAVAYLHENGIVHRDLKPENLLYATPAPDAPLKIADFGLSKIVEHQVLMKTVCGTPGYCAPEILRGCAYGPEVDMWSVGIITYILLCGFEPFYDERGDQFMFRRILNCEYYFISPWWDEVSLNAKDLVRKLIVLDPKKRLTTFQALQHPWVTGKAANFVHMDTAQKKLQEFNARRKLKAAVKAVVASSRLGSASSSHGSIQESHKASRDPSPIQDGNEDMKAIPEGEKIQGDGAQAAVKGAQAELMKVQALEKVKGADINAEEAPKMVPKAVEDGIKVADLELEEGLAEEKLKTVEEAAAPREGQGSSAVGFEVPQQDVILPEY
Sequence of 5'-AMP-activated protein kinase catalytic subunit alpha-1 (Q13131 whole entry): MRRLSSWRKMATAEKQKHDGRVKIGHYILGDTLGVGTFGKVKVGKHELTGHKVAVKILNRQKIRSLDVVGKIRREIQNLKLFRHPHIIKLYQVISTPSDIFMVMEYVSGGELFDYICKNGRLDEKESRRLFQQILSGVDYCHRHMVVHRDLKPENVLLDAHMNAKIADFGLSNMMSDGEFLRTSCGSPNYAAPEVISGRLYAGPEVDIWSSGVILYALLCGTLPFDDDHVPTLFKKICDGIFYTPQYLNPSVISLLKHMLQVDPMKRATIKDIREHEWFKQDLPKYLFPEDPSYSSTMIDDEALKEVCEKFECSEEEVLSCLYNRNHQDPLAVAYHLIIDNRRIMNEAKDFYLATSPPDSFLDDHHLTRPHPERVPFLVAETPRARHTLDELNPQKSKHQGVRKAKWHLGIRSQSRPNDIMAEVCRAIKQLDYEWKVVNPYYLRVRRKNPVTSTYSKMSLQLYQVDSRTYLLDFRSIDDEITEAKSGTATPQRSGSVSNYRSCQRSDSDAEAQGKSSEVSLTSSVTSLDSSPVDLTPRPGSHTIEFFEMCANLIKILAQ
Sequence of Death-associated protein kinase 2 (Homo sapiens) (Q9UIK4 whole entry, looked up): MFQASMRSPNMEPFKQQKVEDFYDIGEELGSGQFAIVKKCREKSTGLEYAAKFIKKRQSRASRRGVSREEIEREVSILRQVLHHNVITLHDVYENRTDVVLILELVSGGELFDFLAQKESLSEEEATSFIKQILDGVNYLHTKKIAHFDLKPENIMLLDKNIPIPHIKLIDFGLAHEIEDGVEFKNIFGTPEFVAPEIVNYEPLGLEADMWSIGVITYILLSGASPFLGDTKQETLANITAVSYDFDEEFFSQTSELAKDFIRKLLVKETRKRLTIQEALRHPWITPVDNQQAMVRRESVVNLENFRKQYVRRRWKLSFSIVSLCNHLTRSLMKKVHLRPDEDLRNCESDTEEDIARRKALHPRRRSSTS

SMILES: Cc1ccc(-c2ccc3c(ccc4sc5c(c43)NC[C@@H](C)NC5=O)n2)cn1
IC50 [4]: 0.117 µM
IC50 [5]: 0.07 µM

SMILES: CCCS(=O)(=O)c1nc(NC2CC2)cc(-c2ccc3c(ccn3C3CC(C)(C)NC(C)(C)C3)c2)n1
dTm [6]: 15.5 K
dTm [7]: < 2 K
dTm [8]: 12.5 K
dTm [9]: < 2 K
EC50 [10]: 0.1 µM
dTm [11]: < 2 K
dTm [12]: < 2 K
dTm [13]: < 2 K

SMILES: Cc1c(Nc2ccc(S(=O)(=O)N3CCN(C)CC3)cc2F)nc2ccc(Nc3cnn(C4CC4)c3)cn2c1=O
IC50 (Acetylcholinesterase): 5.5 µM
IC50 (D(3) dopamine receptor [19]): 0.95 µM
IC50 [20]: 0.8 µM

SMILES: CO[C@@H](C)c1c(Nc2ccc([C@@H](N(C)C(=O)C3CCS(=O)(=O)CC3)C(F)(F)F)cc2)cnc2cc(Cl)nn12 [NVS-MALT1-C]
% of control [21]: 42%
Ki [22]: > 10 µM
% of control [23]: 29%
% of control [24]: 41%

SMILES: CC(C)NC(=O)N1CC[C@H](NC2=Nc3cc(F)ccc3N(CC(F)F)c3ccc(Cl)cc32)C1
dTm [25]: 0.7 K
IC50 (Histamine H1 receptor): 13 µM
IC50 [26]: 13 µM

Second part, led by results:

IC50 (Insulin receptor): > 10 µM
% of inhibition [1]: 0.3%
IC50 (Ephrin type-B receptor 2): > 10 µM
% of inhibition [3]: 22.5%
SMILES: OCCn1cc(-c2cnc3nnn(Cc4ccc5ncccc5c4)c3n2)cn1 [PF-04217903]
% of inhibition [2]: 0.4%

% of control [14]: 42%
% of control [15]: 28%
% of inhibition (D(3) dopamine receptor [16]): 33%
% of control [17]: 35%
IC50 [18]: 3.5 µM
SMILES: COc1ccc2cc(OCC3(C(=O)O)CN(C(=O)c4ccc(F)cc4)C3)ccc2c1 [PF-04418948]
